Experimental data published in patent EP1191024A1, “Thiadiazines and their use as inhibitors of metalloproteinases” (Tschesche, Harald, priority 2000, dated 2002).
pIC50: −log10 of the molar value. Counter-ions that a name gives are not always drawn. Like-named read-outs stand apart in the source and are kept apart here.

Experiments:
[1] = biological target: cdMMP-2 (Homo sapiens, UniProt P08253); experiment: MMP microfluorometric profiling assay (fluorogenic Mca-peptide substrate); type: biochemical; conditions: for percent inhibition: cdMMP-2, @ 15 (µM)
Procedure: The tested MMP enzymes were prepared more specifically in the laboratories of the applicants, with the exception of MMP-1. MMP-1 from human rheumatoid synovial fibroblasts was purchased from Calbiochem-Novabiochem Corporation, LaJolla. Preparation of the recombinant catalytic domain of human Gelatinase A (cdMMP-2): The catalytic domain of Pro-Gelatinase A was prepared using an E. coli expression system according to the method described by Kröger et al^[19]. The proenzyme was activated with 0.5 mM APMA at 37°C prior to use in the assay. […] Preparation of PMNL-Gelatinase (MMP-9): Latent PMNL-pro-Gelatinase was prepared from human plasma buffy coat as described by Tschesche et al^[21]. PMNL-pro-Gelatinase was activated prior to use by incubation with Trypsin at 37°C for 10 min. Inactivation of Trypsin was accomplished with TKI. […] The overexpressed protein was isolated as inclusion bodies and the renatured protein was purified by affinity chromatography with a hydroxamate inhibitor coupled column as described^[22]. Preparation of the recombinant catalytic domain of human Collagenase-3 (cdMMP-13): Human pro-cdMMP-13 was prepared using an E. coli expression system according to the method described^[23]. The isolated pro-cdMMP-13 was activated prior to use by incubation with 5 mM HgCl2 for 2 h at 37°C.
The enzymatic activity was measured using a modified version of a resonance energy transfer fluorogenic assay as described^[26]. Progress curves were monitored by following the increase in fluorescence at 393 nm (λex = 328 nm), induced by the cleavage of the (7-methoxycoumarin-4-yl)acetyl-Pro-Leu-Gly-Leu-(3-[2,4-dinitro-phenyl]-L-2,3-diamino-propionyl)-Ala-Arg-NH2 (Mca-Pro-Leu-Gly-Leu-Dpa-Ala-Arg-NH2) fluorogenic substrate by MMPs. The fluorescent MCA-group is quenched by resonance energy transfer to the 2,4-dinitrophenyl group. Matrix metalloproteinases cleave this substrate at the Gly-Leu bond. Cleavage results in the loss of energy transfer and a large increase in fluorescence of the MCA group. This substrate is commercially available from Bachem, Switzerland.
Enzyme inhibition assays were carried out in MRB which consisted of 50 mM HEPES/NaOH, pH 7.0, 10 mM CaCl2 and 0,02% (w/v) PEG 8000 at 25°C. MMP microfluorometric profiling assay was done in white U-bottomed 96-well plates (Microfluor 1 White, Dynex, USA) with a final substrate concentration of 6 µM MCA-peptide, approximately 0.3 to 5 nM MMP with variable inhibitor concentrations and 2% DMSO vehicle. From a 1.5 mM stock (100% DMSO) the inhibitors were serially diluted with MRB to 15, 10, 5, 3, 1, 0.6, 0.3, 0.1, 0.05, 0.01 and 0.005 µM final assay concentration. Column 1, rows A through H, contained only DMSO for the "enzyme-only" wells in the assay. After preincubation for 30 min at 25°C the reaction was started by addition of substrate and the plate was read on a SpectraFluor Plus (Tecan, Germany) plate reader with excitation at 330 nm and emission at 405 nm with the gain set to 150. Each measurement was done in triplicate to ensure statistically significant results. The experiment was further controlled for background fluorescence of the substrate, for fluorescence of fully cleaved substrate and for fluorescence quenching or augmentation from solutions containing the test compounds.
Datapoints from eight different MMPs generated on the SpectraFluor Plus were directly visualized on a master Excel spreadsheet. The response of inhibition was determinated for each inhibitor concentration by comparing the amount of hydrolysis (fluorescence units generated over 30 minutes of hydrolysis) of wells containing compound with the "enzyme-only" wells in column 1. With the program GraFit (Erithacus Software Limited) a 4 parameter logistic fit to the dose-response data was used to calculate IC50 values for each compound.

[2] = biological target: T1, ΔTM-MMP-14 (Homo sapiens, UniProt P50281); experiment: as above; type: biochemical
T1 construct: The ectodomain of MMP-14 was expressed in Pichia Pastoris; made in house; host or cells: Pichia pastoris

Chain of cdMMP-2 (P08253 110-446): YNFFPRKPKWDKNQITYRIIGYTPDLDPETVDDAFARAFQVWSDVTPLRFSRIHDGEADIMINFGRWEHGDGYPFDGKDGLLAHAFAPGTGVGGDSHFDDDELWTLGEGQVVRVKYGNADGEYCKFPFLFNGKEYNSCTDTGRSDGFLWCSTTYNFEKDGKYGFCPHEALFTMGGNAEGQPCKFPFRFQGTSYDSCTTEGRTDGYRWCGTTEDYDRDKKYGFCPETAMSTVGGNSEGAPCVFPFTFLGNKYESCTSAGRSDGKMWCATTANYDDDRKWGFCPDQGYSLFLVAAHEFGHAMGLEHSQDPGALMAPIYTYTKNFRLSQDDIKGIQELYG

SMILES	pIC50 ([1]; read-out: cdMMP-2 IC50)	pIC50 [2]	also measured
C[C@H](NS(=O)(=O)c1ccccc1)C(=O)NC1=NN=C(c2ccc([N+](=O)[O-])cc2)CS1 [Example 9, (2S)-N-[5-(4-Nitrophenyl)-6H-1,3,4-thiadiazin-2-yl]-2-[(phenylsulfonyl)amino]-propanamide]	6.31		
C[C@H](NS(=O)(=O)c1cccnc1)C(=O)NC1=NN=C(c2ccc(Cl)cc2)CS1 [Example 29, (2S)-N-[5-(4-Chlorophenyl)-6H-1,3,4-thiadiazin-2-yl]-2-[(3-pyridylsulfonyl)-amino]propanamide]	6.45	6.37	
C[C@H](NS(=O)(=O)c1ccccc1)C(=O)NC1=NN=C(c2ccc(Br)cc2)CS1 [Example 6, (2S)-N-[5-(4-Bromophenyl)-6H-1,3,4-thiadiazin-2-yl]-2-[(phenylsulfonyl)amino]-propanamide]	6.34		
CC(C)[C@H](NS(=O)(=O)c1ccccc1)C(=O)NC1=NN=C(c2ccc(Cl)cc2)CS1 [Example 22, (2S)-N-[5-(4-Chlorophenyl)-6H-1,3,4-thiadiazin-2-yl]-3-methyl-2-[(phenylsulfonyl)amino]butanamide]	5.84		
CC(C)(C)c1ccc(S(=O)(=O)NCC(=O)NC2=NN=C(c3ccc(Cl)cc3Cl)CS2)cc1 [Example 18, 2-{[(4-tert-Butylphenyl)sulfonyl]amino}-N-[5-(2,4-dichlorophenyl)-6H-1,3,4-thiadiazin-2-yl]acetamide]	5.61	6.05	
C[C@H](NS(=O)(=O)N1CCOCC1)C(=O)NC1=NN=C(c2ccc(Cl)cc2)CS1 [Example 28, (2S)-N-[5-(4-Chlorophenyl)-6H-1,3,4-thiadiazin-2yl-]-2-[(4-morpholinylsulfonyl)amino]propanamide]			pIC50 [1]: 6.18
COc1ccc(S(=O)(=O)N[C@@H](C)C(=O)NC2=NN=C(c3ccc(C)cc3)CS2)cc1 [Example 17, (2S)-2-{[(4-Methoxyphenyl)sulfonyl]amino}-N-[5-(4-methylphenyl)-6H-1,3,4-thiadiazin-2-yl]propanamide]	6.17		
O=C(CC1NC(=O)NC1=O)NC1=NN=C(c2ccc(C3CCCCC3)cc2)CS1 (stereo not shown) [Example 25, N-[5-(4-Cyclohexylphenyl)-6H-1,3,4-thiadiazin-2-yl]-2-(2,5-dioxo-4-imidazolidinyl)acetamide]			percent inhibition [1]: 53%^a)@ 15
COc1ccc(S(=O)(=O)NCC(=O)NC2=NN=C(c3c(F)c(F)c(F)c(F)c3F)CS2)cc1 [Example 16, 2-{[(4-Methoxyphenyl)sulfonyl]amino}-N-[5-(2,3,4,5,6-pentafluorophenyl)-6H-1,3,4-thiadiazin-2-yl]acetamide]	5.41		
O=C(CC1NC(=O)NC1=O)NC1=NN=C(c2ccc(Br)cc2)CS1 (stereo not shown) [Example 24, N-[5-(4-Bromophenyl)-6H-1,3,4-thiadiazin-2-yl]-2-(2,5-dioxo-4-imidazolidinyl)-acetamide]	6.06		
COc1ccc(S(=O)(=O)NCC(=O)NC2=NN=C(c3ccc(Cl)cc3Cl)CS2)cc1 [Example 19, N-[5-(2,4-Dichlorophenyl)-6H-1,3,4-thiadiazin-2-yl]-2-{[(4-methoxyphenyl)-sulfonyl]amino}acetamide]	5.82		
O=C(CC1NC(=O)NC1=O)NC1=NN=C(c2ccc(N3CCCC3)cc2)CS1 (stereo not shown) [Example 26, 2-(2,5-Dioxo-4-imidazolidinyl)-N-{5-[4-(1-pyrrolidinyl)phenyl]-6H-1,3,4-thiadiazin-2-yl}acetamide]	6.05		percent inhibition ([2]; ΔTM-MMP-14, @ 15 (µM)): 63%^a)@ 15
C[C@@H](NS(=O)(=O)c1ccccc1)C(=O)NC1=NN=C(c2ccc(C#N)cc2)CS1 [Example 1, (2R)-N-[5-(4-Cyanophenyl)-6H-1,3,4-thiadiazine-2-yl]-2-[(phenylsulfonyl)amino]-propanamide]	6.45	6.21	
C[C@H](NS(=O)(=O)c1ccccc1)C(=O)NC1=NN=C(c2ccc(Cl)s2)CS1 [Example 10, (2S)-N-[5-(5-Chloro-2-thienyl)-6H-1,3,4-thiadiazin-2-yl]-2-[(phenylsulfonyl)-amino]propanamide]	5.51	6.45	
C[C@H](NS(=O)(=O)c1ccccc1)C(=O)NC1=NN=C(c2ccc(C#N)cc2)CS1 [Example 3, (2S)-N-[5-(4-Cyanophenyl)-6H-1,3,4-thiadiazin-2-yl]-2-[(phenylsulfonyl)amino]-propanamide]	6.41	6.15	
C=CCNC1=NN=C(c2ccc(Cl)cc2)CS1 [Example 31, N-Allyl-5-(4-chlorophenyl)-6H-1,3,4-thiadiazin-2-amine hydrobromide]			pIC50 [1]: 5.48
O=C1C[C@@H](C(=O)NC2=NN=C(c3ccc(Cl)cc3)CS2)NC(=O)N1 [Example 30, (4S)-N-[5-(4-Chlorophenyl)-6H-1,3,4-thiadiazin-2-yl]-2,6-dioxohexahydro-4-pyrimidinecarboxamide]	6.16	6.16	
O=C(CC1NC(=O)NC1=O)NC1=NN=C(c2ccc(Cl)cc2)CS1 (stereo not shown) [Example 23, N-[5-(4-Chlorophenyl)-6H-1,3,4-thiadiazin-2-yl]-2-(2,5-dioxo-4-imidazolidinyl)-acetamide]			percent inhibition [1]: 67%^a)@ 15
CC(C)[C@@H](NS(=O)(=O)c1ccccc1)C(=O)NC1=NN=C(c2ccc(Cl)cc2)CS1 [Example 2, (2R)-N-[5-(4-Chlorophenyl)-6H-1,3,4-thiadiazin-2-yl]-3-methyl-2-[(phenylsulfonyl)amino]butanamide]	5.85	6.23	
C[C@H](NS(=O)(=O)c1ccccc1)C(=O)NC1=NN=C(c2ccc(C(F)(F)F)cc2)CS1 [Example 4, (2S)-2-[(Phenylsulfonyl)amino]-N-{5-[4-(trifluormethyl)phenyl]-6H-1,3,4-thiadiazin-2-yl}propanamide]		6.15	percent inhibition [1]: 25%^a)@ 15
C[C@@H](NS(=O)(=O)c1ccccc1)C(=O)NC1=NN=C(c2ccc(F)cc2)CS1 [Example 14, (2R)-N-[5-(4-Fluorophenyl)-6H-1,3,4-thiadiazin-2-yl]-2-[(phenylsulfonyl)amino]-propanamide]	6.24	6.22	
